Results from PubChem BioAssay AID216 (DTP/NCI, 2004).
Values joined by “and” are separate entries in the source; they are usually repeats but may differ in a detail not shown here. Equal entries are not always repeated. Inconclusive results and toxic doses are left out.

System: BDF1 mice, P288 leukemia ip, survival T/C
Assay: NCI In Vivo Anticancer Drug Screen. Data for tumor model P288 Lymphocytic Leukemia (intraperitoneal) in B6D2F1 (BDF1) mice
Details: endpoint: survival time, mean or median, higher = longer survival
Experimental: The antitumor activity of compounds was measured in mice bearing transplantable tumors. Survival or tumor size were measured and the results are expressed as the measurement made in the treated group (T) divided by the measurement made in the vehicle treated control group (C). The tumor model used in this assay is P288 Lymphocytic Leukemia (intraperitoneal) in B6D2F1 (BDF1) mice

[1] = dose: 12.5 mg/kg/injection, schedule: Q01DX010 (ip), vehicle: saline
[2] = dose: 25.0 mg/kg/injection, schedule: Q01DX010 (ip), vehicle: saline
[3] = dose: 50.0 mg/kg/injection, schedule: Q01DX010 (ip), vehicle: saline
[4] = dose: 3.1 mg/kg/injection, schedule: Q01DX Z (ip), vehicle: carboxymethylcellulose (CMC)
[5] = dose: 6.3 mg/kg/injection, schedule: Q01DX Z (ip), vehicle: carboxymethylcellulose (CMC)
[6] = dose: 12.5 mg/kg/injection, schedule: Q01DX Z (ip), vehicle: carboxymethylcellulose (CMC)
[7] = dose: 1.0 mg/kg/injection, schedule: Q01DX Z (ip), vehicle: saline
[8] = dose: 2.0 mg/kg/injection, schedule: Q01DX010 (ip), vehicle: saline
[9] = dose: 2.0 mg/kg/injection, schedule: Q01DX Z (ip), vehicle: saline
[10] = dose: 4.0 mg/kg/injection, schedule: Q01DX010 (ip), vehicle: saline
[11] = dose: 8.0 mg/kg/injection, schedule: Q01DX010 (ip), vehicle: saline
[12] = dose: 16.0 mg/kg/injection, schedule: Q01DX010 (ip), vehicle: saline
[13] = dose: 32.0 mg/kg/injection, schedule: Q01DX Z (ip), vehicle: saline
[14] = dose: 2.5 mg/kg/injection, schedule: Q01DX Z (ip), vehicle: carboxymethylcellulose (CMC)
[15] = dose: 0.5 mg/kg/injection, schedule: Q01DX010 (ip), vehicle: saline
[16] = dose: 1.0 mg/kg/injection, schedule: Q01DX010 (ip), vehicle: saline
[17] = dose: 6.25 mg/kg/injection, schedule: Q01DX Z (ip), vehicle: carboxymethylcellulose (CMC)
[18] = dose: 25.0 mg/kg/injection, schedule: Q01DX Z (ip), vehicle: carboxymethylcellulose (CMC)

In the case of `C[C@]12C=CC(=O)C=C1CC[C@@H]1[C@@H]2C(=O)C[C@@]2(C)[C@H]1CC[C@]2(O)C(=O)CO`, the T/C (dose: 12.5 mg/kg/injection, schedule: Q01DX010 (sc), vehicle: steriod suspending solution) is reported as 105 % of control, the T/C (dose: 25.0 mg/kg/injection, schedule: Q01DX010 (sc), vehicle: steriod suspending solution) is reported as 103 % of control and the T/C (dose: 50.0 mg/kg/injection, schedule: Q01DX010 (sc), vehicle: steriod suspending solution) is reported as 111 % of control and 87 % of control. For the same compound, the T/C (dose: 50.0 mg/kg/injection, schedule: Q01DX Z (sc), vehicle: steriod suspending solution) was 102 % of control and 100 % of control, the T/C (dose: 100.0 mg/kg/injection, schedule: Q01DX010 (sc), vehicle: steriod suspending solution) was 100 % of control and the T/C (dose: 100.0 mg/kg/injection, schedule: Q01DX Z (sc), vehicle: steriod suspending solution) was 102 % of control and 111 % of control. For the same compound, the T/C (dose: 200.0 mg/kg/injection, schedule: Q01DX010 (sc), vehicle: steriod suspending solution) was 97 % of control, the T/C (dose: 200.0 mg/kg/injection, schedule: Q01DX Z (sc), vehicle: steriod suspending solution) was 90 % of control and 100 % of control and the T/C (dose: 400.0 mg/kg/injection, schedule: Q01DX Z (sc), vehicle: steriod suspending solution) was 94 % of control.
With `COS(C)(=O)=O` the T/C [1] was 100 % of control, the T/C (dose: 12.5 mg/kg/injection, schedule: Q01DX Z (ip), vehicle: water) was 109 % of control and the T/C [2] was 100 % of control. The T/C (dose: 25.0 mg/kg/injection, schedule: Q01DX Z (ip), vehicle: water) was 103 % of control, the T/C [3] was 87 % of control and the T/C (dose: 100.0 mg/kg/injection, schedule: Q01DX010 (ip), vehicle: saline) was 106 % of control. For the same compound, the T/C (dose: 100.0 mg/kg/injection, schedule: Q01DX Z (ip), vehicle: water) was 97 % of control.
In the case of `CSc1ncnc2c1ncn2C1OC(CO)C(O)C1O` (stereo not given), the T/C [4] is reported as 101 % of control, the T/C [5] is reported as 124 % of control and the T/C [6] is reported as 118 % of control.
In the case of `O=C(Nc1ccc(NC2=NCCN2)cc1)c1ccc(C(=O)Nc2ccc(NC3=NCCN3)cc2)cc1`, the T/C (dose: 0.5 mg/kg/injection, schedule: Q01DX Z (ip), vehicle: saline) is reported as 97 % of control, the T/C [7] is reported as 109 % of control and the T/C [8] is reported as 157 % of control and 184 % of control. For the same compound, the T/C [9] was 114 % of control, the T/C [10] was 189 % of control and 194 % of control and the T/C (dose: 4.0 mg/kg/injection, schedule: Q01DX Z (ip), vehicle: saline) was 152 % of control. For the same compound, the T/C [11] was 247 % of control and 284 % of control, the T/C (dose: 8.0 mg/kg/injection, schedule: Q01DX Z (ip), vehicle: saline) was 203 % of control and the T/C [12] was 115 % of control. For the same compound, the T/C [13] was 105 % of control.
In the case of `Nc1nc(SCc2ccccc2)c2[nH]cnc2n1`, the T/C [14] is reported as 108 % of control, the T/C (dose: 4.95 mg/kg/injection, schedule: Q01DX Z (ip), vehicle: carboxymethylcellulose (CMC)) is reported as 113 % of control and the T/C [11] is reported as 94 % of control. The T/C (dose: 9.9 mg/kg/injection, schedule: Q01DX Z (ip), vehicle: carboxymethylcellulose (CMC)) was 91 % of control, the T/C [12] was 88 % of control and the T/C (dose: 18.75 mg/kg/injection, schedule: Q01DX Z (ip), vehicle: carboxymethylcellulose (CMC)) was 88 % of control. For the same compound, the T/C (dose: 18.8 mg/kg/injection, schedule: Q01DX Z (ip), vehicle: carboxymethylcellulose (CMC)) was 113 % of control, the T/C (dose: 32.0 mg/kg/injection, schedule: Q01DX010 (ip), vehicle: saline) was 100 % of control and the T/C (dose: 64.0 mg/kg/injection, schedule: Q01DX010 (ip), vehicle: saline) was 122 % of control. For the same compound, the T/C (dose: 128.0 mg/kg/injection, schedule: Q01DX010 (ip), vehicle: saline) was 110 % of control.
For `C[C@]12CCC(=O)C=C1CC[C@@H]1[C@@H]2CC[C@@]2(C)[C@H]1CC[C@]2(C)O`, the T/C (dose: 16.0 mg/kg/injection, schedule: Q01DX Z (sc), vehicle: steriod suspending solution) was 104 % of control, the T/C (dose: 31.0 mg/kg/injection, schedule: Q01DX Z (sc), vehicle: steriod suspending solution) was 108 % of control and the T/C (dose: 62.5 mg/kg/injection, schedule: Q01DX Z (sc), vehicle: steriod suspending solution) was 110 % of control and 116 % of control. The T/C (dose: 125.0 mg/kg/injection, schedule: Q01DX Z (sc), vehicle: steriod suspending solution) was 100 % of control, the T/C (dose: 250.0 mg/kg/injection, schedule: Q01DX Z (sc), vehicle: steriod suspending solution) was 100 % of control and the T/C (dose: 500.0 mg/kg/injection, schedule: Q01DX Z (sc), vehicle: steriod suspending solution) was 101 % of control.
For `COc1cc2c(c(OC)c1OC)-c1ccc(N)c(=O)cc1[C@@H](NC(C)=O)CC2`, the T/C [15] was 157 % of control, the T/C [16] was 164 % of control and 214 % of control and the T/C [8] was 176 % of control and 242 % of control. The T/C [10] was 100 % of control.
In the case of `C[n+]1c2ccccc2nc2c(N)cc(N)cc21`, the T/C [4] is reported as 114 % of control, the T/C [17] is reported as 97 % of control and the T/C [5] is reported as 115 % of control. The T/C [6] was 104 % of control and 105 % of control and the T/C [18] was 117 % of control and 96 % of control.
With `NC(=O)N(CCCl)N=O` the T/C [15] was 205 % of control, the T/C [16] was 222 % of control and the T/C (dose: 1.0 mg/kg/injection, schedule: Q01DX Z (ip), vehicle: carboxymethylcellulose (CMC)) was 105 % of control. The T/C [8] was 166 % of control, the T/C (dose: 2.0 mg/kg/injection, schedule: Q01DX Z (ip), vehicle: carboxymethylcellulose (CMC)) was 98 % of control and the T/C (dose: 4.0 mg/kg/injection, schedule: Q01DX Z (ip), vehicle: carboxymethylcellulose (CMC)) was 104 % of control. For the same compound, the T/C (dose: 8.0 mg/kg/injection, schedule: Q01DX Z (ip), vehicle: carboxymethylcellulose (CMC)) was 152 % of control and 210 % of control.
For `O=NN(CCCl)C(=O)NCCCl`, the T/C [7] was 121 % of control, the T/C [9] was 117 % of control and the T/C (dose: 6.25 mg/kg/injection, schedule: Q01DX010 (ip), vehicle: saline) was 193 % of control and 428 % of control. For the same compound, the T/C [1] was 150 % of control and 192 % of control, the T/C (dose: 16.0 mg/kg/injection, schedule: Q01DX Z (ip), vehicle: saline) was 203 % of control and the T/C [2] was 106 % of control and 121 % of control. The T/C [13] was 263 % of control, the T/C [3] was 87 % of control and the T/C (dose: 64.0 mg/kg/injection, schedule: Q01DX Z (ip), vehicle: saline) was 101 % of control.
For `Nc1ncnc2[nH]ncc12`, the T/C (dose: 1.5 mg/kg/injection, schedule: Q01DX010 (ip), vehicle: saline) was 93 % of control and 100 % of control, the T/C (dose: 3.0 mg/kg/injection, schedule: Q01DX010 (ip), vehicle: saline) was 107 % of control and 100 % of control and the T/C (dose: 6.0 mg/kg/injection, schedule: Q01DX010 (ip), vehicle: saline) was 100 % of control. The T/C [17] was 92 % of control, the T/C (dose: 12.0 mg/kg/injection, schedule: Q01DX010 (ip), vehicle: saline) was 112 % of control and the T/C [6] was 94 % of control. For the same compound, the T/C [18] was 94 % of control.
With `CCN(CC)c1ccc2cc3ccc(=[N+](CC)CC)cc-3oc2c1` the T/C (dose: 0.08 mg/kg/injection, schedule: Q01DX Z (ip), vehicle: carboxymethylcellulose (CMC)) was 110 % of control, the T/C (dose: 0.16 mg/kg/injection, schedule: Q01DX Z (ip), vehicle: carboxymethylcellulose (CMC)) was 90 % of control and the T/C (dose: 0.31 mg/kg/injection, schedule: Q01DX Z (ip), vehicle: carboxymethylcellulose (CMC)) was 108 % of control. The T/C (dose: 0.32 mg/kg/injection, schedule: Q01DX Z (ip), vehicle: carboxymethylcellulose (CMC)) was 96 % of control, the T/C (dose: 0.63 mg/kg/injection, schedule: Q01DX Z (ip), vehicle: carboxymethylcellulose (CMC)) was 100 % of control and the T/C (dose: 1.25 mg/kg/injection, schedule: Q01DX Z (ip), vehicle: carboxymethylcellulose (CMC)) was 106 % of control. For the same compound, the T/C [14] was 102 % of control and the T/C (dose: 5.0 mg/kg/injection, schedule: Q01DX Z (ip), vehicle: carboxymethylcellulose (CMC)) was 115 % of control and 117 % of control.
